The source of these data is patent US12312332B2 (Merck Sharp & Dohme LLC., priority 2019, dated 2025).

Structures are written as SMILES.

The target of this assay is T1, human OX2R (Homo sapiens, UniProt O43614).
T1 construct: expressed in transfected cells; host or cells: Chinese hamster ovary (CHO) cells, kept under G418 selection
T1 sequence (O43614 1-444): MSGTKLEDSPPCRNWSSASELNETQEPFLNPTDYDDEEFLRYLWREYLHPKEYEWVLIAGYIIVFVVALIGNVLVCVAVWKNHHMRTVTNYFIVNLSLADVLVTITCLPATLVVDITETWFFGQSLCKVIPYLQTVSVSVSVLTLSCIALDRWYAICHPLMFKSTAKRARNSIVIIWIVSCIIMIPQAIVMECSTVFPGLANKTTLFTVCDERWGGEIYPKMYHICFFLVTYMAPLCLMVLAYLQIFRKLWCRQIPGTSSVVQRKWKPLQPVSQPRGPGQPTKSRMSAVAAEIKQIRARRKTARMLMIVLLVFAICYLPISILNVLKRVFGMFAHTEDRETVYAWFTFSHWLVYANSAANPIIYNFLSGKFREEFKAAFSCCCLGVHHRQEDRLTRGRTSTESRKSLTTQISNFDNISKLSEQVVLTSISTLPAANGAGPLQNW
The assay is described as follows: IPOne (IP-One) orexin receptor agonist assay in CHO cells expressing human OX2R. It is filed as cell-based. The note with it: for EC50: CHO cells expressing human OX2R, IP-One detection, 2 hours incubation, four parameter logistic fit, read-out: OX2R Potency, EC50; for % max agonist effect (Emax): human OX2R, percentage of sample raw value/mean max effect (reference compound at 1 uM with 100% activity).

By EC50 is commonly meant the concentration at which the effect is half-maximal. On to `CS(=O)(=O)N[C@H]1CCN(c2nccc(O)c2F)[C@H]1CO[C@H]1CC[C@@H](c2cccc(F)c2)CC1` [Example 96, N-((2R,3S)-1-(3-fluoro-4-hydroxypyridin-2-yl)-2-((((CIS)-4-(3-fluorophenyl)cyclohexyl)oxy)methyl)pyrrolidin-3-yl)methanesulfonamide], for which the concentration giving a half-maximal response (EC50) stood at 0.23 nM and the “% max agonist effect (Emax)” value is listed as 101.6%.
Take `CS(=O)(=O)N[C@H]1CCN(c2cc(C(F)(F)F)ncn2)[C@H]1CO[C@H]1CC[C@@H](c2ccccc2)CC1` [Example 46, N-((2R,3S)-2-((((CIS)-4-phenylcyclohexyl)oxy)methyl)-1-(6-(trifluoromethyl)pyrimidin-4-yl)pyrrolidin-3-yl)methanesulfonamide]: the EC50 was greater than 10000 nM and the “% max agonist effect (Emax)” value amounted to 43.4%.
On to `CS(=O)(=O)N[C@H]1CCN(c2ncccc2C(F)F)[C@H]1CO[C@H]1CC[C@@H](c2ccccc2)CC1` [Example 124, N-((2R,3S)-1-(3-(difluoromethyl)pyridin-2-yl)-2-((((CIS)-4-phenylcyclohexyl)oxy)methyl)pyrrolidin-3-yl)methanesulfonamide], for which the EC50 worked out at 150 nM and the “% max agonist effect (Emax)” value is on record as 100.2%.
For `Cn1ncnc1N1CC[C@H](NS(C)(=O)=O)[C@@H]1CO[C@H]1CC[C@@H](c2ccccc2)CC1` [Example 15, N-((2R,3S)-1-(1-methyl-1H-1,2,4-triazol-5-yl)-2-((((CIS)-4-phenylcyclohexyl)oxy)methyl)pyrrolidin-3-yl)methanesulfonamide], the EC50 is 33.7 nM and the “% max agonist effect (Emax)” value is 101.6%.
As for `CS(=O)(=O)N[C@H]1CCN(c2cc(C(F)F)ccn2)[C@H]1CO[C@H]1CC[C@@H](c2ccccc2)CC1` [Example 143, N-((2R,3S)-1-(4-(difluoromethyl)pyridin-2-yl)-2-((((CIS)-4-phenylcyclohexyl)oxy)methyl)pyrrolidin-3-yl)methanesulfonamide], the EC50 was found to be 1820 nM and the “% max agonist effect (Emax)” value is recorded as 95.6%.
On to `CS(=O)(=O)N[C@H]1CCN(c2ncc(F)c(O)c2F)[C@H]1CO[C@H]1CC[C@@H](c2cccc(F)c2)CC1` [Example 163, N-((2R,3S)-1-(3,5-difluoro-4-hydroxypyridin-2-yl)-2-((((CIS)-4-(3-fluorophenyl)cyclohexyl)oxy)methyl)pyrrolidin-3-yl)methanesulfonamide], for which the EC50 was found to be 1.4 nM and the “% max agonist effect (Emax)” value is recorded as 101.8%.
As to `CS(=O)(=O)N[C@H]1CCN(c2nccc(O)c2Cl)[C@H]1CO[C@H]1CC[C@@H](c2ccccc2)CC1` [Example 120, N-((2R,3S)-1-(3-chloro-4-hydroxypyridin-2-yl)-2-((((CIS)-4-phenylcyclohexyl)oxy)methyl)pyrrolidin-3-yl)methanesulfonamide], the EC50 was 10.8 nM and the “% max agonist effect (Emax)” value was determined as 100.5%.
Consider `Cc1nc(N2CC[C@H](NS(C)(=O)=O)[C@@H]2CO[C@H]2CC[C@@H](c3ccccc3)CC2)cs1` [Example 109, N-((2R,3S)-1-(2-methylthiazol-4-yl)-2-((((CIS)-4-phenylcyclohexyl)oxy)methyl)pyrrolidin-3-yl)methanesulfonamide], for which the EC50 worked out at 140 nM and the “% max agonist effect (Emax)” value was 97.7%.
In the case of `CS(=O)(=O)N[C@H]1CCN(c2cc[nH]c(=O)c2)[C@H]1CO[C@H]1CC[C@@H](c2ccccc2)CC1` [Example 154, N-((2R,3S)-1-(2-oxo-1,2-dihydropyridin-4-yl)-2-((((CIS)-4-phenylcyclohexyl)oxy)methyl)pyrrolidin-3-yl)methanesulfonamide], the EC50 worked out at 52.3 nM and the “% max agonist effect (Emax)” value was 100.5%.
For `CS(=O)(=O)N[C@H]1CCN(c2nccc(O)c2F)[C@H]1COC1CCC(c2ccccc2C(F)(F)F)CC1` (stereo partly drawn) [Example 160, N-((2R,3S)-1-(3-fluoro-4-hydroxypyridin-2-yl)-2-(((4-(2-(trifluoromethyl)phenyl)cyclohexyl)-oxy)methyl)pyrrolidin-3-yl)methanesulfonamide], in that order: 6.1 nM and 101.7%.
For `CS(=O)(=O)N[C@H]1CCN(c2cncc3ccccc23)[C@H]1CO[C@H]1CC[C@@H](c2ccccc2)CC1` (relative stereo) [Example 4, N-((CIS)-1-(isoquinolin-4-yl)-2-((((CIS)-4-phenylcyclohexyl)oxy)methyl)pyrrolidin-3-yl)methanesulfonamide], the EC50 came to 1070 nM and the “% max agonist effect (Emax)” value was 97.3%.
For `COC(=O)c1csc(N2CC[C@H](NS(C)(=O)=O)[C@@H]2CO[C@H]2CC[C@@H](c3ccccc3)CC2)n1` [Example 103, methyl 2-((2R,3S)-3-(methylsulfonamido)-2-((((CIS)-4-phenylcyclohexyl)oxy)methyl)pyrrolidin-1-yl)thiazole-4-carboxylate], the EC50 stood at 1190 nM and the “% max agonist effect (Emax)” value is listed as 93%.
On to `Cn1cc(N2CC[C@H](NS(C)(=O)=O)[C@@H]2CO[C@H]2CC[C@@H](c3ccccc3)CC2)ccc1=O` [Example 112, N-((2R,3S)-1-(1-methyl-6-oxo-1,6-dihydropyridin-3-yl)-2-((((CIS)-4-phenylcyclohexyl)oxy)methyl)pyrrolidin-3-yl)methanesulfonamide], for which the EC50 amounted to 4650 nM and the “% max agonist effect (Emax)” value was determined as 88.2%.
With `CS(=O)(=O)N[C@H]1CCN(c2cc(C(F)F)cc(C(F)F)n2)[C@H]1CO[C@H]1CC[C@@H](c2ccccc2)CC1` [Example 142, N-((2R,3S)-1-(4,6-bis(difluoromethyl)pyridin-2-yl)-2-((((CIS)-4-phenylcyclohexyl)oxy)methyl)pyrrolidin-3-yl)methanesulfonamide], the EC50 was greater than 10000 nM and the “% max agonist effect (Emax)” value came to 15.8%.
`Cn1cc(F)c(=O)cc1N1CC[C@H](NS(C)(=O)=O)[C@@H]1CO[C@H]1CC[C@@H](c2ccccc2)CC1` [Example 88, N-((2R,3S)-1-(5-fluoro-1-methyl-4-oxo-1,4-dihydropyridin-2-yl)-2-((((CIS)-4-phenylcyclohexyl)oxy)methyl)pyrrolidin-3-yl)methanesulfonamide]: the EC50 amounted to 29.3 nM and the “% max agonist effect (Emax)” value is listed as 101.1%.
In the case of `CS(=O)(=O)N[C@H]1CCN(c2ccc(C(F)(F)F)nc2)[C@H]1CO[C@H]1CC[C@@H](c2ccccc2)CC1` [Example 34, N-((2R,3S)-2-((((CIS)-4-phenylcyclohexyl)oxy)methyl)-1-(6-(trifluoromethyl)pyridin-3-yl)pyrrolidin-3-yl)methanesulfonamide], the EC50 was determined as 70 nM and the “% max agonist effect (Emax)” value is given as 99.6%.
For the compound `CS(=O)(=O)N[C@H]1CCN(c2cccc(=O)[nH]2)[C@H]1CO[C@H]1CC[C@@H](c2ccccc2)CC1` [Example 148, N-((2R,3S)-1-(6-oxo-1,6-dihydropyridin-2-yl)-2-((((CIS)-4-phenylcyclohexyl)oxy)methyl)pyrrolidin-3-yl)methanesulfonamide], the EC50 turned out to be 163 nM and the “% max agonist effect (Emax)” value came to 99.3%.
Take `CS(=O)(=O)N[C@H]1CCN(c2ncns2)[C@H]1CO[C@H]1CC[C@@H](c2ccccc2)CC1` [Example 33, N-((2R,3S)-2-((((CIS)-4-phenylcyclohexyl)oxy)methyl)-1-(1,2,4-thiadiazol-5-yl)pyrrolidin-3-yl)methanesulfonamide]: the EC50 was 146 nM and the “% max agonist effect (Emax)” value amounted to 101.0%.
As for `CS(=O)(=O)N[C@H]1CCN(c2cnc3oncc3c2)[C@H]1CO[C@H]1CC[C@@H](c2ccccc2)CC1` [Example 90, N-((2R,3S)-1-(isoxazolo[5,4-b]pyridin-5-yl)-2-((((CIS)-4-phenylcyclohexyl)oxy)methyl)pyrrolidin-3-yl)methanesulfonamide], the EC50 was determined as 930 nM and the “% max agonist effect (Emax)” value was 87.6%.
As for `CS(=O)(=O)N[C@H]1CCN(c2cnccc2C(F)F)[C@H]1CO[C@H]1CC[C@@H](c2ccccc2)CC1` [Example 121, N-((2R,3S)-1-(4-(difluoromethyl)pyridin-3-yl)-2-((((CIS)-4-phenylcyclohexyl)oxy)methyl)pyrrolidin-3-yl)methanesulfonamide], the concentration for a half-maximal effect (EC50) was 16.9 nM and the “% max agonist effect (Emax)” value is listed as 101.1%.
Take `CS(=O)(=O)N[C@H]1CCN(c2cncnc2)[C@H]1CO[C@H]1CC[C@@H](c2ccccc2)CC1` [Example 42, N-((2R,3S)-2-((((CIS)-4-phenylcyclohexyl)oxy)methyl)-1-(pyrimidin-5-yl)pyrrolidin-3-yl)methanesulfonamide]: the EC50 was determined as 134 nM and the “% max agonist effect (Emax)” value worked out at 100.9%.
For `Cc1nnc(N2CC[C@H](NS(C)(=O)=O)[C@@H]2CO[C@H]2CC[C@@H](c3ccccc3)CC2)o1` [Example 37, N-((2R,3 S)-1-(5-methyl-1,3,4-oxadiazol-2-yl)-2-((((CIS)-4-phenylcyclohexyl)oxy)methyl)pyrrolidin-3-yl)methanesulfonamide], in that order: 670 nM and 101.5%.
Consider `Cc1ncsc1N1CC[C@H](NS(C)(=O)=O)[C@@H]1CO[C@H]1CC[C@@H](c2ccccc2)CC1` [Example 83, N-((2R,3S)-1-(4-methylthiazol-5-yl)-2-((((CIS)-4-phenylcyclohexyl)oxy)methyl)pyrrolidin-3-yl)methanesulfonamide], for which the EC50 was determined as 1070 nM and the “% max agonist effect (Emax)” value turned out to be 94.8%.
